Test results as given in PMC10901892 (Scientific Reports, 2024).
Entries after “also recorded” stand apart in the source; their conditions may differ.

Legend:
[1] = test system: isolated mouse liver mitochondria; format: biochemical; settings: for EC50: read-out: EC50 of uncoupling activity
[2] = target: T1, mitochondrial electron transport chain (complex II) (Mus musculus, UniProt Q8K2B3+Q9CQA3+Q9CXV1+Q9CZB0); format: biochemical
T1 construct: Mouse liver mitochondria were isolated by homogenization and differential centrifugation; from tissue; host or cells: liver of male C57BL/6JINV (Jax) mice; isolated mitochondria, intact or disrupted by a freeze-thaw cycle

[3] = test system: rats; settings: cited from earlier work
[4] = In vitro metabolic stability with rat liver microsomes
[5] = Stability in aqueous 100 mM KPO4 buffer with or without GSH
[6] = test system: mice; experiment: NMY1009 in vivo toxicity study; settings: i.p. daily, 1 to 100 mg/kg, seven days
Description: (§1) Figure 2 Determination of NMY1009 toxicity and plasma and tissue concentrations. (A) 7 treatment groups and 1 vehicle group (four mice per each group) were subjected to 7 daily administrations of the drug i.p. and well-being checks were carried out at 6 and 24 h after each treatment. No deaths or adverse reactions at any of the used NMY1009 doses were observed. (B, C) Tissue and plasma kinetics of NMY1009. Mice were injected with 5 mg/kg NMY1009 i.p. NMY1009 concentrations were measured by LC/MS.
7 treatment groups and 1 vehicle group (four mice per each group) were subjected to 7 daily administrations of the drug i.p. NMY1009 was dissolved in 100% DMSO and the injection volume was 30 μl. Well-being checks were carried out at 6 and 24 h after each treatment. The in vivo toxicity study was carried out by Altogen Labs (Austin, TX).

[7] = NMY1009 plasma and tissue concentrations over time by LC/MS; format: in vivo; settings: mice, 5 mg/kg i.p.
Description: as §1
To characterize the in vivo pharmacokinetics properties of NMY1009, we measured plasma and tissue concentrations over time after an i.p. injection of 5 mg/kg NMY1009. […] The kinetics of the tissue drug concentrations were similar compared to plasma. The observed decline in the adipose tissue concentrations may be due to drug metabolism or renal excretion. The latter possibility appears less likely as the drug concentration in the kidney was very low. […] However, the adipose tissue drug concentrations decreased over time with a half-life of approximately 3 h.
50 mg of tissue were extracted into 1000 μl of acetonitrile. The entire supernatant was dried and reconstituted into 200 μl of 1:1 acetonitrile/water.

[8] = test system: mice on high fat diet; settings: mouse, in vivo, ip, 3 mg/kg
[9] = in vivo, 5 mg/kg
[10] = aqueous buffer, ESI mass spectrometry
[11] = aqueous solution without GSH, 37 °C

T1 sequence (Q8K2B3 43-664): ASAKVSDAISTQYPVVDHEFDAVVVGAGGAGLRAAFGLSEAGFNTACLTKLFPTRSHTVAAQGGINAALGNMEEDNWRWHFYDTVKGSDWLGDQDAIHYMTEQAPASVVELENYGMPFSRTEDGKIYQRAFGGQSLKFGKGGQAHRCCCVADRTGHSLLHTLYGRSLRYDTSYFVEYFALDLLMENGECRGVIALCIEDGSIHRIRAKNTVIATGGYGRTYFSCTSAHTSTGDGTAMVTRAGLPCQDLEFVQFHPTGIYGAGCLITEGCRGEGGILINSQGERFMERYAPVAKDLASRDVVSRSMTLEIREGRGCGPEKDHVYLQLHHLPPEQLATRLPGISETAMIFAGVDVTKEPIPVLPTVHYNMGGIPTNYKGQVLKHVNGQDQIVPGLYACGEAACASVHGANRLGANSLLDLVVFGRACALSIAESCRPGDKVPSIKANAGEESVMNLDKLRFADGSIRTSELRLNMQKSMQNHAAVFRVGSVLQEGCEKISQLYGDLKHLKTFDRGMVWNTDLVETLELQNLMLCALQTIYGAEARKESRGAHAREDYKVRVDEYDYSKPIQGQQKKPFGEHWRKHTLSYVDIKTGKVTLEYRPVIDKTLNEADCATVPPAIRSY
T1 sequence (Q9CQA3 31-282): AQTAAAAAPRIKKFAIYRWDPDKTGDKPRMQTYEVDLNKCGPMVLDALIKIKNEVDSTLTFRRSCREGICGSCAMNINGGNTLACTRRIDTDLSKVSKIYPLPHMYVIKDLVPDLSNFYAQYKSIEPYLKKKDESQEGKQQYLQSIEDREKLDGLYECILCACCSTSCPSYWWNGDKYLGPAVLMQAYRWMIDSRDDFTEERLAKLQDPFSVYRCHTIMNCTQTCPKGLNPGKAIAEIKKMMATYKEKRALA
T1 sequence (Q9CZB0 30-169): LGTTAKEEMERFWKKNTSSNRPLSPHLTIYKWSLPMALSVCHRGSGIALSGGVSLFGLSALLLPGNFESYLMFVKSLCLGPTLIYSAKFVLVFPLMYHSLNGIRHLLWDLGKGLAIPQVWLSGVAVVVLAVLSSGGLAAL
T1 sequence (Q9CXV1 57-159): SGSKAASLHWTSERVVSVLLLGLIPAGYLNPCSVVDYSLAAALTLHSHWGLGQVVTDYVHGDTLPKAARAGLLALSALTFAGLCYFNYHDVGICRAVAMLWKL

SMILES: O=[N+]([O-])c1ccc(O)c([N+](=O)[O-])c1 [2,4-dinitrophenol, reference compound]
- EC50, fold stimulation of oxygen consumption [1]: 9600 nM
- inhibitory effect on mitochondrial electron transport chain activity [2]: no inhibitory effect

SMILES: N#CC(C#N)=NNc1ccc(OC(F)(F)F)cc1 [FCCP, carbonyl cyanide p-trifluoromethoxy-phenylhydrazone, reference compound]
- doses causing adverse effects [3]: ≥ 5 mg/kg
- doses causing death [3]: higher than 20 mg/kg
- stability upon incubation with rat liver microsomes (in words) ([4]; presence and absence of NADPH, up to 45 min, 37 °C): stable
- drug turnover in aqueous solution in the absence or presence of 0.2 mM GSH (in words) ([5]; 24 h, 37 °C, 100 mM KPO4): not metabolized significantly
- incubation time at which the O-dealkylated metabolite (loss of the trifluoromethyl group) was observed [5, 10]: 24 h

SMILES: CCCCCCCCOc1ccc(NN=C(C#N)C#N)cc1 [NMY1009, (4-octyloxy-phenyl)carbonhydrazonoyl dicyanide]
- EC50 [1]: ~100 nM
- deaths or adverse reactions (toxicity) [6]: No deaths or adverse reactions were observed; also recorded: no toxicity
- tissue distribution (in words) [7]: highest drug tissue concentrations were found in the different types of adipose tissue
- half-life ([7]; mouse, adipose tissue, ip, read-out: half-life of adipose tissue drug concentrations (converted)): ~180 min
- Tmax ([7]; mouse, plasma, ip, read-out: time of peak plasma concentration (converted)): 30 min
- Glucose Tolerance Test response vs vehicle [8]: no altered Glucose Tolerance Test response
- blood glucose concentrations and other blood markers of metabolic health vs vehicle [8]: no significant differences in blood glucose concentrations and other blood markers of metabolic health
- body composition (body weight and fat mass gains) vs vehicle [8]: no changes in the body composition
- respiratory exchange ratio and energy expenditure vs vehicle [8]: no differences the respiratory exchange ratio and energy expenditure
- serum adiponectin concentrations vs vehicle [8]: decrease in serum adiponectin concentrations
- half-life at 1 µM ([4]; rat, microsomes, pH 7.4): ~30 min
- incubation time at which the dealkylated metabolite (loss of the octyl group) was observed [5, 10]: 30 min
- time after which one third of the drug was turned over [5, 11]: approximately 1 h
- time after which two thirds of the drug were turned over [5, 11]: 6 h
- drug remaining at the end of the 24 h incubation ([5]; aqueous solution without GSH, 37 °C, 10 μM): about 18%

SMILES: CCCCOc1ccc(NN=C(C#N)C#N)cc1 [C4-CCP]
- EC50 [1]: ~100 nM

SMILES: CCCCCCCCCCCCOc1ccc(NN=C(C#N)C#N)cc1 [C12-CCP]
- uncoupling activity (in words) [1]: no activity; also recorded: low uncoupling activity

SMILES: COc1ccc(NN=C(C#N)C#N)cc1 [C1-CCP]
- uncoupling activity (in words) [1]: lower uncoupling activity compared to C4-CCP and C8-CCP

SMILES: CCCCCCCCOc1cc([N+](=O)[O-])c(O)c([N+](=O)[O-])c1 [2,6-dinitro-4-(octyloxy)phenol]
- EC50, fold stimulation of oxygen consumption [1]: 3700 nM
- effect on mitochondrial oxygen consumption at very high concentrations [2]: inhibited mitochondrial oxygen consumption at very high concentrations
- effect on oxygen consumption with NADH as substrate [2]: minimal effect
- effect on succinate-dependent oxygen consumption after disruption of the inner membrane [2]: inhibited succinate-dependent oxygen consumption
- plasma concentration kinetics (in words) ([9]; C57BL/6, mouse): decreased rapidly with much faster kinetics compared to 2,6-dinitrophenol
- drug tissue concentration, heart ([9]; mouse): BLQ
- drug tissue concentration, kidney ([9]; mouse): BLQ
- drug tissue concentration, liver ([9]; mouse): BLQ
- health of animals during the study ([9]; mouse): healthy throughout the study duration
- tissue concentrations (in words) ([9]; mouse, ip): very low
